Activity calls are given as the source filed them.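 The calls were made as follows: active = compounds giving half or more protection of infected cells from virus-caused growth loss, again on retest; inactive = the rest.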

For the assay, the system named is CEM cells HIV-1 protection, formazan growth assay. Briefly: NCI AIDS Antiviral Assay. The conditions noted are these: for IC50: measured here: growth of uninfected CEM cells. The procedure, abridged: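 CEM (human) cells, HIV-1 infected vs uninfected, 5-point dosing, formazan growth read-out. Retest threshold 50% protection.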

On to `Cc1ccc(N(C)S(=O)(=O)c2ccc([N+](=O)[O-])cc2)cc1`, for which the EC50 (as a rule, the concentration at which the effect is half-maximal) was over 200 µM and the IC50 (commonly the concentration that inhibits the measured activity by half) came out at 178 µM.

As to `Cc1c(NC(=O)CSC(=S)N2CCN(Cc3ccccc3)CC2)c(=O)n(-c2ccccc2)n1C`, the outcome was inactive.

`CCOP(=S)(OCC)Oc1ccc2c(C)c(Cl)c(=O)oc2c1`: the EC50 was over 37.2 µM and the IC50 is over 37.2 µM.

As for `CC(C)Nc1n[nH]c(=O)n1C(C)C`, the EC50 is over 200 µM and the IC50 is over 200 µM.

As for `CN(C)NC1=NS(=O)(=O)c2cc3c(cc2S1)N(N(C)C)C(=O)c1cc2c(cc1N(N(C)C)C3=O)SC(NN(C)C)=NS2(=O)=O`, the EC50 is over 200 µM and the IC50 came out at 141 µM.

As for `CN(C)c1n2c3ccc([N+](=O)[O-])cc3n3c(N(C)C)[n+]4ccccc4c3c2c2cccc[n+]12`, the EC50 is over 200 µM and the IC50 was 89.1 µM.

With `O=[N+]([O-])c1ccc(C[N+]23CCN(CC2)CC3)cc1`, the outcome was inactive.

For the molecule `Nc1c(Cl)ncnc1Nc1ccc(Cc2ccc(Nc3ncnc(Cl)c3N)cc2)cc1`, the EC50 is over 79.4 µM and the IC50 was over 79.4 µM.

In the case of `CN1c2ccccc2N(C)C23N(C)c4ccccc4N(C)C12N(C)c1ccccc1N3C` (stereo unspecified), the EC50 is over 43.7 µM and the IC50 is over 43.7 µM.

With `NC(=S)NNC(=O)/C(=C/c1ccc(/C=C(\NC(=O)c2ccccc2)C(=O)NNC(N)=S)cc1)NC(=O)c1ccccc1`, the EC50 is over 8.71 µM and the IC50 is over 8.71 µM.

As to `CC1(C)OC2C(O1)[C@H]1OC(C(Cl)(Cl)Cl)=N[C@H]1C(I)[C@H]2N1C(=O)c2ccccc2C1=O` (stereo partly specified), the EC50 was over 200 µM and the IC50 amounted to 110 µM.

Regarding `O=c1c2ccccc2[nH]c(=S)n1-c1ccc(Cl)cc1`, the EC50 was over 200 µM and the IC50 is over 200 µM.

Consider `COc1cc2c(c(OC)c1OC)C1CCCCC1SCC2=O` (stereo unspecified), for which the EC50 was over 155 µM and the IC50 is over 155 µM.

On to `c1ccc(P(OCCCCOP(c2ccccc2)c2ccccc2)c2ccccc2)cc1`, for which the EC50 was over 200 µM and the IC50 was found to be 85.1 µM.

Regarding `OC1C2CCC1C1C3C=CC(C3)C21` (stereo unspecified), the outcome was inactive.

On to `CCC1(CC)C(=O)N(C(=O)c2ccc(C)cc2)N(C(=O)c2ccc(C)cc2)C1=O`, for which the EC50 is over 200 µM and the IC50 came to 20.4 µM.

Regarding `C=CC[C@@]1(C#N)C[C@H](C[C@]2(C#N)C[C@H](CCl)OC(C)(C)O2)OC(C)(C)O1`, the EC50 was over 200 µM and the IC50 is 107 µM.

Regarding `Cc1ccc(-c2c(C#N)c(-c3ccccc3)n(NS(=O)(=O)c3ccccc3)c(=O)c2C#N)cc1`, the EC50 is over 200 µM and the IC50 is 28.8 µM.

As for `CC1(C)C(=O)N2CCSC21` (stereo unspecified), the EC50 is over 16.6 µM and the IC50 is over 16.6 µM.

Turning to `CCOC(=O)/C=C/c1cccc(Cl)c1`, the EC50 is over 24.5 µM and the IC50 is over 24.5 µM.

Consider `C=C(CN(C)C)C(=O)c1cc(C)ccc1C`, for which the EC50 is over 200 µM and the IC50 is 11.2 µM.

On to `N#Cc1c(-c2ccccc2)cc(-c2ccccc2)n(C2OCC(O)C(O)C2O)c1=S` (stereo unspecified), for which the EC50 was over 200 µM and the IC50 stood at 21.4 µM.

With `O=c1[nH]c(=O)n(C2OC(CO)C(O)C2O)cc1NN=NCc1ccccc1` (stereo unspecified), the EC50 was over 182 µM and the IC50 was over 182 µM.

As to `Cn1c(COc2ccc(/C=N\N3CCN(/N=C\c4ccc(OCc5c[n+]6ccccc6n5C)cc4)CC3)cc2)c[n+]2ccccc12`, the EC50 is 6.31 µM and the IC50 was found to be 7.59 µM.

With `COc1cc(C(CN)N(C)C)cc(OC)c1OC` (stereo unspecified), the EC50 is over 200 µM and the half-maximal inhibitory concentration (IC50) is over 200 µM.

In the case of `CCOC(OC1=C(C#N)CCCC1)C(C)[Se]c1ccccc1` (stereo unspecified), the EC50 was over 20 µM and the IC50 is over 20 µM.

In the case of `CN(C)c1ccc(/C=C2/Oc3ccc(Cl)cc3C2=O)cc1`, the EC50 is over 4.79 µM and the IC50 is over 4.79 µM.

On to `CCSc1nc2sc(C)c(C)c2c(=O)n1-c1ccc(C(=O)O)cc1`, for which the EC50 was over 200 µM and the IC50 is over 200 µM.

As to `Cc1cc(C)nc(NS(=O)(=O)c2ccc(Nc3c4ccccc4nc4c(C(=O)Nc5ccc(S(=O)(=O)Nc6cc(C)on6)cc5)cccc34)cc2)n1`, the EC50 was over 35.5 µM and the IC50 is over 35.5 µM.

Take `CC(C)(C)n1[se]c2ccccc2c1=O`: the EC50 was over 129 µM and the IC50 was 9.33 µM.

Regarding `[O]=[Sb][c]1ccc(C(=O)O)cc1`, the EC50 was over 200 µM and the IC50 stood at 26.3 µM.

On to `O=C1c2cc(Cl)ccc2-n2cnnc2C2CSCN12` (stereo unspecified), for which the EC50 was over 200 µM and the IC50 was over 200 µM.

Consider `O=[N+]([O-])C=C1c2ccccc2-c2ccccc21`, for which the result was inactive.

For the molecule `CCCCCCN(C(=O)Oc1ccccc1)C(C#N)c1ccccc1` (stereo unspecified), the EC50 was over 200 µM and the IC50 was over 200 µM.

For `Cc1nc(SCC(=O)Nc2ccccc2)c2sc(=S)n(-c3ccccc3)c2n1`, the EC50 is over 501 µM and the IC50 was over 501 µM.

Turning to `COC(=O)c1cc(C(=CCCO)c2cc(Br)c(OC)c(C(=O)OC)c2)cc(Br)c1OC`, the EC50 is over 200 µM and the IC50 is 12.6 µM.

On to `Cc1ccc(C(=O)O/N=C2/CCCC/C2=C\c2ccccc2)cc1`, for which the outcome was inactive.

Regarding `Cc1cc(C)n(-c2nsc3ccccc23)n1`, the EC50 is over 112 µM and the IC50 was over 112 µM.

Take `O=C(Nc1nc2ccc([N+](=O)[O-])cc2s1)C(=O)C(C(=O)c1ccccc1F)C1OC(=O)c2ccccc21` (stereo unspecified): the EC50 was over 132 µM and the IC50 amounted to 18.2 µM.

In the case of `CC1=CC(C/C(C)=C/COc2ccc3ccc(=O)oc3c2)OC1=O` (stereo unspecified), the EC50 was over 3.24 µM and the IC50 is over 3.24 µM.

For the molecule `CCCCCC=C(c1cc(Cl)c(OC)c(C(=O)OC)c1)c1cc(Cl)c(OC)c(C(=O)OC)c1`, the EC50 is 17.8 µM and the IC50 was found to be 28.8 µM.

With `C[C@]12OC(=O)[C@]3(O)CC[C@H]4[C@@H](C[C@@H](O)[C@@]5(Cl)CC=CC(=O)[C@]45C)[C@]45OCC6C(=O)O[C@@H]1C[C@@]6(C)[C@H](C4=O)[C@@]32O5` (stereo partly specified), the EC50 was over 2 µM and the IC50 was found to be 0.871 µM.

In the case of `O=[N+]([O-])C(=C(c1ccccc1)c1ccccc1)[N+](=O)[O-]`, the result was inactive.

In the case of `COC(=O)c1c2cccccc-2c(Cc2c3cccccc-3c(C(=O)OC)c2O)c1O`, the EC50 was over 200 µM and the IC50 was over 200 µM.

Turning to `COc1ccccc1OCC(O)CO` (stereo unspecified), the result was inactive.

Turning to `CC(=O)/C=C/CCC1CCC(=O)C1(C)C(=O)OC(C)(C)C` (stereo unspecified), the EC50 was over 115 µM and the IC50 stood at 39.8 µM.

As to `CCN(CC)CCSSCCN(CC)CC`, the EC50 is over 200 µM and the IC50 came to 38.9 µM.

As to `COc1ccc(NC(=O)COC(=O)c2cccc3c(=O)c4ccccc4[nH]c23)cc1`, the outcome was inactive.

With `COC(=O)C1(C(=O)OC)CC2c3c(c4ccccc4n3C)CC(C1=O)N2Cc1ccccc1` (stereo unspecified), the outcome was inactive.

As for `CC(C)(C)OC(=O)C1C(=O)C(C(=O)OC(C)(C)C)C23CCCCCCCCCCC12C(C(=O)OC(C)(C)C)C(=O)C3C(=O)OC(C)(C)C` (stereo unspecified), the EC50 was over 18.6 µM and the IC50 was over 18.6 µM.

In the case of `Cc1nn(C(=O)c2ccc(Cl)cc2)c2c1C(c1ccc(O)cc1)SC(N)=N2` (stereo unspecified), the EC50 is over 200 µM and the IC50 was over 200 µM.

With `Cc1cccc(-c2nc3sc(-c4cccc(C)n4)nc3s2)n1`, the outcome was inactive.

Consider `C=CCCON(C(=O)OC(C)(C)C)c1ccccc1`, for which the EC50 was over 200 µM and the IC50 was determined as 57.5 µM.

`O=[N+]([O-])c1ccc(C2=Nc3ccccc3S(=O)C(c3ccccc3)C2)cc1` (stereo unspecified): the EC50 is over 7.24 µM and the IC50 is over 7.24 µM.

In the case of `COC1(OC)N=C(N)C2(C#N)C3(C(=O)N(C(C)C)N=C3C)C12C#N` (stereo unspecified), the EC50 was over 200 µM and the concentration for half-maximal inhibition (IC50) is over 200 µM.

In the case of `O=C(Nc1ccc(Cl)cc1)Nc1ccc(Cl)c(C(F)(F)F)c1`, the EC50 was over 200 µM and the IC50 is 2.69 µM.

Consider `O=C(/C=C/c1cc(O)c(O)c(O)c1)OCCc1ccccc1`, for which the EC50 is over 50.1 µM and the 50% inhibitory concentration (IC50) turned out to be 15.5 µM.

Take `Cc1ncc([N+](=O)[O-])n1CCNC(=O)CCC(=O)NCCCn1ccnc1[N+](=O)[O-]`: the EC50 was over 200 µM and the IC50 was over 200 µM.

As for `CC1(C)CCCCCCCCCC(C)(CCCCCCCCCCCCO)C1=O` (stereo unspecified), the EC50 was over 200 µM and the IC50 amounted to 18.6 µM.

In turn, `Cc1cccc(CNc2ncnc3[nH]ncc23)c1` registered an EC50 of over 200 µM and an IC50 of over 200 µM.

Turning to `COC(=O)[C@@H](NC(=O)N(CCC#N)CCCN(C(=O)N[C@H](Cc1ccccc1)C(=O)OC)c1ccccc1)C(C)C`, the EC50 was over 200 µM and the IC50 stood at 87.1 µM.

With `CC(=O)C1(c2ccccc2)CCCN(C)CC1` (stereo unspecified), the result was inactive.

Regarding `CC(=O)/C(=C\c1ccccc1O)C(=O)Nc1ccccc1C`, the EC50 was over 33.9 µM and the IC50 came to 22.4 µM.

Consider `Cc1ncc2c[n+]([O-])ccn12`, for which the EC50 is over 1660 µM and the IC50 was over 1660 µM.

For the molecule `CCCCNC(=O)/C(=C/c1ccc2c(c1)OCO2)NC(=O)c1ccccc1`, the EC50 was over 200 µM and the IC50 is over 200 µM.

On to `C[n+]1c(-c2ccc(/C=N\Nc3nnc(S)n3/N=C/c3ccc(-c4cn5ccccc5[n+]4C)cc3)cc2)cn2ccccc21`, for which the EC50 is 66.1 µM and the IC50 was determined as 67.6 µM.

Take `CC(C)C12C=CC(C)(CC1)n1c(=O)c3cc4ccccc4cc3c(=O)n12` (stereo unspecified): the EC50 is over 4.17 µM and the IC50 is over 4.17 µM.

Take `Cn1c(=O)c2[nH]c(/N=N\n3ccc4ccccc43)nc2n(C)c1=O`: the EC50 is over 200 µM and the IC50 came out at 191 µM.

With `CCC(C)[N-]c1cccc[n+]1[O-].CCC(C)[N-]c1cccc[n+]1[O-].[Cu+2]` (stereo unspecified), the EC50 was over 200 µM and the IC50 is 83.2 µM.

With `O=c1[nH]c2ccccc2c(O)c1Cc1c(O)c2ccccc2[nH]c1=O`, the EC50 is over 25.1 µM and the IC50 was over 25.1 µM.

With `CN1CN(c2ccccc2)C2(CCN(CCC3COc4ccccc4O3)CC2)C1=O` (stereo unspecified), the EC50 was over 200 µM and the IC50 is 30.9 µM.

Values taken from PubChem BioAssay AID179 (DTP/NCI, 2004).
